In patent US11382918B2, “Methods for treating Huntington's Disease” (PTC Therapeutics, Inc., priority 2017, dated 2022) one finds IC50 data, which are given here for 33 compounds.

The test has as its system Endogenous Huntingtin Protein (HTT). The experiment in a line: Endogenous Huntingtin Protein Assay (ELISA-based MSD electrochemiluminescence). It is filed as cell-based. The following applies: Table 1. The method in brief: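 HTT protein in lysates was measured by electrochemiluminescence on the MSD platform. Rabbit monoclonal 5656S followed by SULFO-TAG anti-rabbit antibody served for detection after overnight 4 °C capture with MAB2166 or the polyglutamine-directed MW1 antibody.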
(In general: In an ELISA, binding on a coated surface is turned into a signal by an enzyme label.)
By IC50 is commonly meant the concentration needed to halve the response being measured. Read a low IC50 as greater potency in that assay. `Cc1cn2nc(-c3cc(=O)n4cc(N5CCN(C)CC5)ccc4n3)cc2c(C2CC2)n1` [compound 684, 2-(4-cyclopropyl-6-methylpyrazolo[1,5-a]pyrazin-2-yl)-7-(4-methylpiperazin-1-yl)-4H-pyrido[1,2-a]pyrimidin-4-one]: the IC50 lay in the range of 3000 to 33000 nM.

`CCN1CCN(c2ccc3nc(-c4cc5c(C6CC6)nc(C)cn5n4)cc(=O)n3c2)CC1` [compound 685, 2-(4-cyclopropyl-6-methylpyrazolo[1,5-a]pyrazin-2-yl)-7-(4-ethylpiperazin-1-yl)-4H-pyrido[1,2-a]pyrimidin-4-one] gave an IC50 of 3000 to 33000 nM.

`Cc1cn2nc(-c3cc(=O)n4cc(N5CCNCC5)ccc4n3)cc2c(N(C)C)n1` [compound 688, 2-[4-(dimethylamino)-6-methylpyrazolo[1,5-a]pyrazin-2-yl]-7-(piperazin-1-yl)-4H-pyrido[1,2-a]pyrimidin-4-one] gave a half-maximal inhibitory concentration (IC50) of 3000 to 33000 nM.

Compound `CCc1cc(-c2cc(=O)n3cc(C4CCNCC4)ccc3n2)cn2cc(C)nc12` [compound 696, 2-(8-ethyl-2-methylimidazo[1,2-a]pyridin-6-yl)-7-(piperidin-4-yl)-4H-pyrido[1,2-a]pyrimidin-4-one] had an IC50 of under 100 nM.

For the compound `CCN1CCC(c2cc(C)c3nc(-c4cc5c(C)nc(C)cn5n4)cc(=O)n3c2)CC1` [compound 702, 2-(4,6-dimethylpyrazolo[1,5-a]pyrazin-2-yl)-7-(1-ethylpiperidin-4-yl)-9-methyl-4H-pyrido[1,2-a]pyrimidin-4-one], the half-inhibitory concentration (IC50) is 1000 to 3000 nM.

For the compound `Cc1cc(C2CCN(C)CC2)cn2c(=O)cc(-c3ccc4nn(C)cc4c3)nc12` [compound 705, 9-methyl-2-(2-methyl-2H-indazol-5-yl)-7-(1-methylpiperidin-4-yl)-4H-pyrido[1,2-a]pyrimidin-4-one], the half-inhibitory concentration (IC50) was 500 to 1000 nM.

For `Cc1cn2nc(-c3cc(=O)n4cc(N5CCC(C)(N(C)C)CC5)ccc4n3)cc2c(C)n1` [compound 706, 7-[4-(dimethylamino)-4-methylpiperidin-1-yl]-2-(4,6-dimethylpyrazolo[1,5-a]pyrazin-2-yl)-4H-pyrido[1,2-a]pyrimidin-4-one], the 50% inhibitory concentration (IC50) is 3000 to 33000 nM.

Regarding `Cc1cn2nc(-c3cc(=O)n4cc(N5CCC(C)(NCCO)CC5)ccc4n3)cc2c(C)n1` [compound 709, 2-(4,6-dimethylpyrazolo[1,5-a]pyrazin-2-yl)-7-{4-[(2-hydroxyethyl)amino]-4-methylpiperidin-1-yl}-4H-pyrido[1,2-a]pyrimidin-4-one], the half-inhibitory concentration (IC50) lay in the range of 3000 to 33000 nM.

In turn, `Cc1cc(C2CCN(C3CCC3)CC2)cn2c(=O)cc(-c3ccc4nn(C)cc4c3)nc12` [compound 710, 7-(1-cyclobutylpiperidin-4-yl)-9-methyl-2-(2-methyl-2H-indazol-5-yl)-4H-pyrido[1,2-a]pyrimidin-4-one] showed an IC50 of 100 to 500 nM.

Regarding `Cc1cc(C2CCN(CCO)CC2)cn2c(=O)cc(-c3ccc4nn(C)cc4c3)nc12` [compound 711, 7-[1-(2-hydroxyethyl)piperidin-4-yl]-9-methyl-2-(2-methyl-2H-indazol-5-yl)-4H-pyrido[1,2-a]pyrimidin-4-one], the IC50 lay within 100 to 500 nM.

In the case of `Cc1cn2cc(-c3cc(=O)n4cc(N5CCN[C@H](C)C5)ccc4n3)cc2c(C)n1` [compound 713, 2-(1,3-dimethylpyrrolo[1,2-a]pyrazin-7-yl)-7-[(3R)-3-methylpiperazin-1-yl]-4H-pyrido[1,2-a]pyrimidin-4-one], the IC50 lay in the range of 100 to 500 nM.

`Cc1cn2cc(-c3cc(=O)n4cc(N5CCNCC5)ccc4n3)cc(C3CC3)c2n1` [compound 714, 2-(8-cyclopropyl-2-methylimidazo[1,2-a]pyridin-6-yl)-7-(piperazin-1-yl)-4H-pyrido[1,2-a]pyrimidin-4-one]: the half-inhibitory concentration (IC50) is 3000 to 33000 nM.

Regarding `Cc1cc(C2CCN(C3CC3)CC2)cn2c(=O)cc(-c3ccc4nn(C)cc4c3)nc12` [compound 718, 7-(1-cyclopropylpiperidin-4-yl)-9-methyl-2-(2-methyl-2H-indazol-5-yl)-4H-pyrido[1,2-a]pyrimidin-4-one], the concentration for half-maximal inhibition (IC50) was 100 to 500 nM.

In turn, `CCN1CCC(c2cc(C)c3nc(-c4ccc5nn(C)cc5c4)cc(=O)n3c2)CC1` [compound 719, 7-(1-ethylpiperidin-4-yl)-9-methyl-2-(2-methyl-2H-indazol-5-yl)-4H-pyrido[1,2-a]pyrimidin-4-one] displayed an IC50 of under 100 nM.

`Cc1cn2nc(-c3cc(=O)n4cc(N5CCNCC5)cc(C)c4n3)cc2c(C)n1` [compound 720, 2-(4,6-dimethylpyrazolo[1,5-a]pyrazin-2-yl)-9-methyl-7-(piperazin-1-yl)-4H-pyrido[1,2-a]pyrimidin-4-one] returned an IC50 of 3000 to 33000 nM.

Compound `Cc1cc(C2CCNCC2)cn2c(=O)cc(-c3ccc4nn(C)cc4c3)nc12` [compound 721, 9-methyl-2-(2-methyl-2H-indazol-5-yl)-7-(piperidin-4-yl)-4H-pyrido[1,2-a]pyrimidin-4-one] displayed a half-inhibitory concentration (IC50) of 500 to 1000 nM.

`CCCc1nc(C)cn2nc(-c3cc(=O)n4cc(N5CCNCC5)ccc4n3)cc12` [compound 723, 2-(6-methyl-4-propylpyrazolo[1,5-a]pyrazin-2-yl)-7-(piperazin-1-yl)-4H-pyrido[1,2-a]pyrimidin-4-one] showed a concentration for half-maximal inhibition (IC50) of 3000 to 33000 nM.

Regarding `CCCc1nc(C)cn2nc(-c3cc(=O)n4cc(N5CCN[C@H](C)C5)ccc4n3)cc12` [compound 727, 7-[(3R)-3-methylpiperazin-1-yl]-2-(6-methyl-4-propylpyrazolo[1,5-a]pyrazin-2-yl)-4H-pyrido[1,2-a]pyrimidin-4-one], the IC50 was 3000 to 33000 nM.

For `Cc1cn2cc(-c3cc(=O)n4cc(N5CCNCC5)ccc4n3)cc(C(F)(F)F)c2n1` [compound 733, 2-[2-methyl-8-(trifluoromethyl)imidazo[1,2-a]pyridin-6-yl]-7-(piperazin-1-yl)-4H-pyrido[1,2-a]pyrimidin-4-one], the 50% inhibitory concentration (IC50) was 1000 to 3000 nM.

The compound `Cc1cn2cc(-c3cc(=O)n4cc(N5CCN[C@H](C)C5)ccc4n3)cc(C(F)(F)F)c2n1` [compound 734, 7-[(3R)-3-methylpiperazin-1-yl]-2-[2-methyl-8-(trifluoromethyl)imidazo[1,2-a]pyridin-6-yl]-4H-pyrido[1,2-a]pyrimidin-4-one] showed a half-maximal inhibitory concentration (IC50) of 3000 to 33000 nM.

Take `Cc1cn2cc(-c3cc(=O)n4cc(N5CCN[C@@H](C)C5)ccc4n3)cc(C(F)(F)F)c2n1` [compound 735, 7-[(3S)-3-methylpiperazin-1-yl]-2-[2-methyl-8-(trifluoromethyl)imidazo[1,2-a]pyridin-6-yl]-4H-pyrido[1,2-a]pyrimidin-4-one]: the IC50 lay in the range of 3000 to 33000 nM.

The compound `Cc1cn2cc(-c3cc(=O)n4cc(N5C[C@@H](C)N[C@@H](C)C5)ccc4n3)cc(C(F)(F)F)c2n1` [compound 736, 7-[(3R,5S)-3,5-dimethylpiperazin-1-yl]-2-[2-methyl-8-(trifluoromethyl)imidazo[1,2-a]pyridin-6-yl]-4H-pyrido[1,2-a]pyrimidin-4-one] registered a half-inhibitory concentration (IC50) of 3000 to 33000 nM.

The compound `Cc1cc(-c2cc(=O)n3cc(N4CCNCC4)ccc3n2)cc2cn(C)nc12` [compound 738, 2-(2,7-dimethyl-2H-indazol-5-yl)-7-(piperazin-1-yl)-4H-pyrido[1,2-a]pyrimidin-4-one] registered an IC50 of 100 to 500 nM.

Compound `Cc1cc(-c2cc(=O)n3cc(C4CCNCC4)ccc3n2)cc2cn(C)nc12` [compound 739, 2-(2,7-dimethyl-2H-indazol-5-yl)-7-(piperidin-4-yl)-4H-pyrido[1,2-a]pyrimidin-4-one] returned a 50% inhibitory concentration (IC50) of 500 to 1000 nM.

`Cc1cc(-c2cc(=O)n3cc(N4CCN[C@H](C)C4)ccc3n2)cc2cn(C)nc12` [compound 741, 2-(2,7-dimethyl-2H-indazol-5-yl)-7-[(3R)-3-methylpiperazin-1-yl]-4H-pyrido[1,2-a]pyrimidin-4-one] yielded an IC50 of 500 to 1000 nM.

On to `CCc1nc(C)cn2cc(-c3cc(=O)n4cc(N5C[C@@H](C)N[C@@H](C)C5)ccc4n3)cc12` [compound 748, 7-[(3R,5S)-3,5-dimethylpiperazin-1-yl]-2-(1-ethyl-3-methylpyrrolo[1,2-a]pyrazin-7-yl)-4H-pyrido[1,2-a]pyrimidin-4-one], for which the half-inhibitory concentration (IC50) lay in the range of 500 to 1000 nM.

`CCc1nc(C)cn2cc(-c3cc(=O)n4cc(N5CCCNCC5)ccc4n3)cc12` [compound 749, 7-(1,4-diazepan-1-yl)-2-(1-ethyl-3-methylpyrrolo[1,2-a]pyrazin-7-yl)-4H-pyrido[1,2-a]pyrimidin-4-one] came in with a half-inhibitory concentration (IC50) of 3000 to 33000 nM.

In turn, `Cc1cc(-c2cc(=O)n3cc(N4CCN[C@@H](C)C4)ccc3n2)cc2cn(C)nc12` [compound 750, 2-(2,7-dimethyl-2H-indazol-5-yl)-7-[(3S)-3-methylpiperazin-1-yl]-4H-pyrido[1,2-a]pyrimidin-4-one] came in with an IC50 of 3000 to 33000 nM.

As for `Cc1cc(-c2cc(=O)n3cc(N4CCN(C)[C@@H](C)C4)ccc3n2)cc2cn(C)nc12` [compound 751, 2-(2,7-dimethyl-2H-indazol-5-yl)-7-[(3S)-3,4-dimethylpiperazin-1-yl]-4H-pyrido[1,2-a]pyrimidin-4-one], the IC50 lay in the range of 3000 to 33000 nM.

In the case of `Cc1cc(-c2cc(=O)n3cc(C4CCN(C)CC4)ccc3n2)cc2cn(C)nc12` [compound 752, 2-(2,7-dimethyl-2H-indazol-5-yl)-7-(1-methylpiperidin-4-yl)-4H-pyrido[1,2-a]pyrimidin-4-one], the IC50 lay in the range of 100 to 500 nM.

`CCN1CCC(c2ccc3nc(-c4cc(C)c5nn(C)cc5c4)cc(=O)n3c2)CC1` [compound 753, 2-(2,7-dimethyl-2H-indazol-5-yl)-7-(1-ethylpiperidin-4-yl)-4H-pyrido[1,2-a]pyrimidin-4-one] had an IC50 of 100 to 500 nM.

Regarding `Cc1cc(N2CCNCC2)cn2c(=O)cc(-c3ccc4nn(C)cc4c3)nc12` [compound 754, 9-methyl-2-(2-methyl-2H-indazol-5-yl)-7-(piperazin-1-yl)-4H-pyrido[1,2-a]pyrimidin-4-one], the 50% inhibitory concentration (IC50) lay in the range of 500 to 1000 nM.

The compound `Cc1cc(N2CCN[C@H](C)C2)cn2c(=O)cc(-c3ccc4nn(C)cc4c3)nc12` [compound 755, 9-methyl-2-(2-methyl-2H-indazol-5-yl)-7-[(3R)-3-methylpiperazin-1-yl]-4H-pyrido[1,2-a]pyrimidin-4-one] registered an IC50 of 1000 to 3000 nM.
